Source: patent US20100009936A1, “CHEMICAL COMPOUNDS” (PRAECIS PHARMACEUTICALS INCORPORATED, priority 2006, published 2010)

Tests used:
[1] = target: T1, S1P-1 receptor (Homo sapiens, UniProt P21453); experiment: [33P]sphingosine 1-phosphate binding assay, S1P-1 receptor; design: expressed in transfected cells; host or cells: HEK 293 T cells (transient, FuGENE 6), crude membranes
Method: In certain embodiments, the compounds of the invention selective for the S1P-1 receptor as compared to one or more of the other S1P receptors. For example, one set of compounds includes compounds which are selective for the S1P-1 receptor relative to the S1P-3 receptor. […] The EC50 of a compound is determined using the ^35S-GTPγS binding assay, as described in WO 03/061567, the entire contents of which are incorporated herein by reference. […] The IC50 of a compound is determined using the [^33P]sphingosine 1-phosphate binding assay, as described in Davis, M. D. et al., Sphingosine 1-Phosphate Analogs as Receptor Antagonists. J. Biol. Chem. (2005) 280:9833-9841, the entire contents of which are incorporated herein by this reference.
The terms “agonist” or “S1P-1 receptor agonist” as used herein include the compounds described herein which bind to and/or agonize the S1P-1 receptor. […] The compounds' IC50 for the S1P-1 receptor can be measured using the binding assays described in Example 13 or those described in WO 03/061567.
The ability of several of the compounds described herein to bind to the S1P-1 or S1P-3 receptor was also tested as follows.
For the membrane preparation, plasmid DNA was transfected into HEK 293 T cells using the FuGENE 6 transfection protocol (publicly available from Roche). […] Protein concentration was determined spectroscopically by Bradford protein assay. […]

[2] = target: T1, S1P-1 receptor; experiment: GTPgS assay, S1P1; format: biochemical; design: expressed in transfected cells; membranes; details: [35S]-GTPgS, membranes of rat hepatoma cells expressing human S1P1; tested as trifluoracetic acid salt; read-out: pEC50 in the S1P1 assay (converted)
Method: (§1) For membrane preparations all steps were performed at 4° C. Rat hepatoma cells stably expressing the human S1P1 receptor or Rat Basophilic Leukaemia cells (RBL) stably expressing human S1P3 receptor were grown to 80% confluency before being harvested into 10 ml Phospho-Buffered Saline (PBS) and centrifuged at 1200 rpm for 5 minutes. After removal of the supernatant, the pellet was re-suspended and cells were homogenised within a glass Waring blender for 2 bursts of 15 secs in 200 mls of buffer (50 mM HEPES, […], 25 ug/ml bacitracin, 1 mM EDTA, 1 mM PMSF, 2 uM pepstatin A). The blender was plunged into ice for 5 mins after the first burst and 10-40 mins after the final burst to allow foam to dissipate. The material was then spun at 500 g for 20 mins and the supernatant spun for 36 mins at 48,000 g. The pellet was resuspended in the same buffer as above but without PMSF and pepstatin A. The material was then forced through a 0.6 mm needle, made up to the required volume, (usually ×4 the volume of the original cell pellet), aliquoted and stored frozen at −80° C. […]
(§2) After 30 minutes pre-coupling at 4° C. the bead and membrane suspension was dispensed into a white Greiner polypropylene LV384-well plate (5 ul/well), containing 0.1 ul of test compound or S1P. […] The final assay cocktail (10.1 ul) was centrifuged at 1000 rpm for 5 minutes then read immediately on a Viewlux. […]

[3] = target: T2, human S1P3 receptor (Homo sapiens, UniProt Q99500); experiment: GTPgS assay, S1P3; format: biochemical; details: [35S]-GTPgS, membranes of RBL cells expressing human S1P3; tested as trifluoracetic acid salt; read-out: pEC50 in the S1P3 assay (converted)
T2 construct: expressed in transfected cells; membranes
T2 sequence (Q99500 whole entry): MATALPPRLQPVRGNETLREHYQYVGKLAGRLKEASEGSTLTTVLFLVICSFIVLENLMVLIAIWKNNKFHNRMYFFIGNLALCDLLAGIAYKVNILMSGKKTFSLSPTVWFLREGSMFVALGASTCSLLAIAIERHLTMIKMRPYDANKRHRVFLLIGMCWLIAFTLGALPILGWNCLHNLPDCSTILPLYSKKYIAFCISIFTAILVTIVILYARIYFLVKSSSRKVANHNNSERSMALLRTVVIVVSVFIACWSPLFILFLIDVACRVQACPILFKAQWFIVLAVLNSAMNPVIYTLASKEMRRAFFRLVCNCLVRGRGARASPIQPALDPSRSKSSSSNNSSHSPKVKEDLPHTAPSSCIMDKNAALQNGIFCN
Method: as §1, §2

[4] = test system: C57Bl/6 mice; experiment: Lymphopenia assay in mice; format: in vivo; details: 10 mg/Kg oral dose, male C57Bl/6 mice, blood taken after 6 hours
Method: Several of the compounds described herein were evaluated for the ability to induce lymphopenia in mice. Male C57Bl/6 mice were divided into groups of three. A control group received the 3% BSA vehicle only. The other groups received a single dose of either a specified dose of test compound in vehicle administered orally (PO) and intravenously (IV). After 6 hours, the mice were anesthetized with isoflurane and approximately 250 μL of blood was removed from the retroorbital sinus and collected in an EDTA microtainer, mixed with an anticoagulant and placed on a tilt table until complete blood count (CBC) analysis.

T1 sequence (P21453 whole entry): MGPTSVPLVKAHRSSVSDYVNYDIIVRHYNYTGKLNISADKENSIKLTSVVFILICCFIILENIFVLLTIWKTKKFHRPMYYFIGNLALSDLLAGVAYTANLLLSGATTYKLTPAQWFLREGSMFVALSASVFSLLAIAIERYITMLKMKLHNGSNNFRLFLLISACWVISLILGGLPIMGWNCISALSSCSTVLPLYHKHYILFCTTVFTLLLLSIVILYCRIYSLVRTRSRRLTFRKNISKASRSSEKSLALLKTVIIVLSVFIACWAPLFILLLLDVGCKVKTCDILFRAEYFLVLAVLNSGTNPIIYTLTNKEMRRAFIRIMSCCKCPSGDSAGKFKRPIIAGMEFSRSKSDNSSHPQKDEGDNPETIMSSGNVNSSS

Row | Compound | IC50 [1] | EC50 [2] | EC50 [3] | lymphopenia [4]
1 | C[C@](N)(COP(=O)(O)O)c1nnc(-c2ccc(OCCCCc3ccccc3)c(C(F)(F)F)c2)s1 | 3.23 nM | – | – | –
2 | CCCCCCCCOc1ccc(-c2nnc([C@@](C)(N)COP(=O)(O)O)s2)cc1C(F)(F)F [(S)-2-Amino-2-(5-(4-(octyloxy)-3-(trifluoromethyl)phenyl)-1,3,4-thiadiazol-2-yl)propyl dihydrogen phosphate] | – | 0.631 nM | 794 nM | –
3 | CCCCCCCCOc1ccc(-c2nnc([C@@](C)(N)CO)s2)cc1C(F)(F)F [(S)-2-amino-2-(5-(4-(octyloxy)-3-(trifluoromethyl)phenyl)-1,3,4-thiadiazol-2-yl)propan-1-ol] | – | – | – | 77%
4 | CCCCCCCCOc1ccc(-c2cnc([C@@](C)(N)CO)s2)cc1C(F)(F)F [(S)-2-amino-2-(5-(4-(octyloxy)-3-(trifluoromethyl)phenyl)thiazol-2-yl)propan-1-ol] | – | – | – | 75%
5 | CCCCCCCCOc1ccc(-c2cnc([C@@](C)(N)COP(=O)(O)O)s2)cc1C(F)(F)F [(S)-2-amino-2-(5-(4-(octyloxy)-3-(trifluoromethyl)phenyl)thiazol-2-yl)propyl dihydrogen phosphate] | – | 3.16 nM | 316 nM | –
